How the values were obtained:
[1] = system: Ocular Tissue Model; assay: Ocular irritation, Mat-Tek in-vitro Ocular Tissue Model (non-animal); format: cell-based
Source text: (§1) These studies were done using non-animal test protocols. Skin Tissue Model and Ocular Tissue Model by Mat-Tek Corporation in-vitro systems were used for dermal and ocular irritation studies.

[2] = system: Skin Tissue Model; assay: Dermal irritation, Mat-Tek in-vitro Skin Tissue Model (non-animal); format: cell-based
Source text: as §1

“nonylphenol 10 EO Ethoxylate [Positive Control]” was tested, and the “Ocular Tox Irritation Ratings/Classifications” value [1] was “Moderate to mild range” and the “Dermal Tox Irritation Ratings/Classifications” value [2] was “Moderate to mild range”.
